Data set [1] is described as follows: Solubility determinations in SIF buffers (FaSSIF, FeSSIF, FaSSGF). Type of data set: physicochemical. As to the method: At this stage ca. 1 g of each front-runner salt form was prepared. Salt forms that offered significant solubility and stability advantages over the non-ionized API were prioritized. […] Scale Up
The solubility of the salts below was determined in FaSSIF, FeSSIF and FaSSGF by reference to the calibration curve of amorphous compound 1.
Separate portions of compound 1 were weighed out into aluminum boats and were charged to the relevant volumetric flasks. Solutions were made to volume with 1 to 1 (v/v) acetonitrile/purified water to give calibrants of known API concentrations and analyzed by HPLC, suitable to determine the concentration of compound 1 free base in the SIF buffer solubility study.
Each sample (150 mg) was suspended in the relevant SIF buffer (5.0 ml), to give a concentration of 30 mg/ml and maintain at 37° C. for 24 h. The pH was adjusted using 1 M HCl or 1 M NaOH, to ensure that the suspension remains in range.
Sample (1 ml) of the well-stirred representative suspensions was obtained at 1 h, 3 h, 6 h and 24 h and the pH was recorded. The pH of the bulk suspension was re-adjusted when necessary. The obtained sample from each vial was centrifuged, and the supernatant was analysed by HPLC (note, the analyte was diluted, when outside of the calibration range); XRPD analysis was performed on the wet sample pellet for evidence of form change, as well as on the oven-dried pellet (undervacuum at 40° C.).

A short description of data set [2]: Dynamic vapor sorption (DVS). Type of data set: physicochemical. As to the method: There are two main methods to use, one is by time where the equilibration is given by a fixed time, i.e., 1 hour per step and is appropriate for an unknown phase. The second, is by mass per time unit (dm/dt) of 0.002%/min; that is when the difference in weight is less than 0.002%, the instrument moves onto the next step. For unknown hygroscopicity, the method by time is indicated because it gives an idea of water affinity without wasting much time. Ideally the analyses are repeated using the mass equilibration method to confirm. By experience for hygroscopic samples, the analysis can continue for days. For non-hygroscopic samples the difference between the two methods may not be significant.
Consequently, amorphous batch 1 was analyzed by the fixed time method and once compound 1 fumarate crystalline polymorphic Form A was generated the analyses was repeated as mass per unit time equilibrated @dm/dt ([…]) and is given below (refer to FIG. 12).
(§1) The moisture sorption properties of the feed API were analysed by DVS Intrinsic instrument (Surface Measurement System). Approximately 20 to 50 mg of API was weighed onto an aluminium pan and loaded into the instrument equilibrated at 25° C. The sample was equilibrated under a dry atmosphere (0% relative humidity) for 60 minutes, before increasing the humidity from 0% to 30% at 5%4 step increment and from 30% to 90% at 10% step increment. A desorption cycle was also applied from 90% to 30% (10% step decrement) and from 30% to 0% (5% step decrement). A rate of change in mass per time unit (dm/dt) of 0.002%/min was set as the equilibrium parameter. Kinetic and isotherm graphs were calculated.
Specimens were equilibrated at 0% RH for 60 min, prior to DVS analyses (stepped increment % RH up to 90% RH and stepped decrement % RH down to 0% RH.
as §1, with “5%” for “5%4”

As a reminder, the Solubility is the concentration that dissolves in the medium under given conditions. As for `COc1ccc2c(ccn2C[C@@H](C)N(C)C)c1.O=C(O)/C=C/C(=O)O` [Compound 1 · Fumarate], the Solubility is above 30 mg/mL in data set [1] (FaSSGF (ph 1.6), t = 1 h@37° C.); above 30 mg/mL in data set [1] (FaSSGF (ph 1.6), t = 3 h@37° C.); above 30 mg/mL in data set [1] (FaSSGF (ph 1.6), t = 6 h@37° C.); above 30 mg/mL in data set [1] (FaSSGF (ph 1.6), t = 24 h @37° C.); above 30 mg/mL in data set [1] (FaSSIF (ph 6.5), t = 1 h@37° C.); above 30 mg/mL in data set [1] (FaSSIF (ph 6.5), t = 3 h@37° C.). For the same compound, the Solubility in data set [1] (FaSSIF (ph 6.5), t = 6 h@37° C.) was above 30 mg/mL; in data set [1] (FaSSIF (ph 6.5), t = 24 h @37° C.) it was above 30 mg/mL; in data set [1] (FeSSIF (ph 5.0), t = 1 h@37° C.) it was above 30 mg/mL; in data set [1] (FeSSIF (ph 5.0), t = 3 h@37° C.) it was above 30 mg/mL; in data set [1] (FeSSIF (ph 5.0), t = 6 h@37° C.), above 30 mg/mL; in data set [1] (FeSSIF (ph 5.0), t = 24 h @37° C.), above 30 mg/mL.

Take `COc1ccc2c(ccn2C[C@@H](C)N(C)C)c1.Cl` [Compound 1 HCl (Form A)]: the “DVS 0 to 90 to 0% RH (dm/dt <0.002%)” value in data set [2] (0.0% RH, sorption) is on record as “DVS 0 to 90 to 0% RH (dm/dt <0.002%): 0.0 (0.00%), 5.0 (0.00%),”; in data set [2] (5.0% RH, desorption), 0.03%; in data set [2] (5.0% RH, sorption), “DVS 0 to 90 to 0% RH (dm/dt <0.002%): 0.0 (0.00%), 5.0 (0.00%),”; in data set [2] (10.0% RH, desorption), 0.04%; in data set [2] (10.0% RH, sorption) it was 0.02%; in data set [2] (15.0% RH, desorption), 0.05%. In addition, the “DVS 0 to 90 to 0% RH (dm/dt <0.002%)” value came to 0.02% in data set [2] (15.0% RH, sorption); 0.06% in data set [2] (20.0% RH, desorption); 0.03% in data set [2] (20.0% RH, sorption); 0.07% in data set [2] (25.0% RH, desorption); 0.04% in data set [2] (25.0% RH, sorption); 0.09% in data set [2] (30.0% RH, desorption). Further, the “DVS 0 to 90 to 0% RH (dm/dt <0.002%)” value in data set [2] (30.0% RH, sorption) worked out at 0.05%; in data set [2] (40.0% RH, desorption), 0.10%; in data set [2] (40.0% RH, sorption) it was 0.07%; in data set [2] (50.0% RH, desorption) it was 0.14%; in data set [2] (50.0% RH, sorption), 0.10%; in data set [2] (60.0% RH, desorption) it was 0.17%. Further, the “DVS 0 to 90 to 0% RH (dm/dt <0.002%)” value was 0.14% in data set [2] (60.0% RH, sorption); 0.22% in data set [2] (70.0% RH, desorption); 0.19% in data set [2] (70.0% RH, sorption); 0.29% in data set [2] (80.0% RH, desorption); 0.26% in data set [2] (80.0% RH, sorption); 0.46% in data set [2] (90.0% RH, desorption). Besides, the “DVS 0 to 90 to 0% RH (dm/dt <0.002%)” value in data set [2] (90.0% RH, sorption) was found to be 0.46%.

The values above are taken from US12319652B2, “Salts and solid forms of (R)-1-(5-methoxy-1H-indol-1-yl)-N,N-dimethylpropan-2-amine” (priority 2021, dated 2025).
